The record followed here is patent publication US8329643B2, “PIMAP39 modulates LPS-induced inflammatory response” (Trustees of Boston University, priority 2008, dated 2012).

The subject of data set [1] is white blood cells within the liver sections. The data set can be described thus: Fluorescence microscopy detection of FITC-labeled PIMAP39 in mouse liver sections after tail vein injection. In kind it is in vivo. The settings on record: 1 mg FITC-PIMAP39 by tail vein injection, one hour post injection, vs DMSO alone. The protocol:
Macrophage samples: Cells (5×10^3) from 3 month old mice were seeded over cover slips (22 mm) in 6-well plates and were treated with 500 ng/ml FITC-PIMAP39 (B) or DMSO alone (A) and continuously incubated overnight. Cover slips were removed and cells were stained with 50 nM LysoTracker Red DND-99 (Invitrogen) for 1.5 hours and then air-dried. Tissue section samples: Mice were treated with 1 mg of FITC-PIMAP39 (E, F) or DMSO alone as control (C, D), by tail vein injection as described. One hour post injection mice were sacrificed and their livers were harvested. Harvested livers were set in uniform orientations in molds using Histoprep™ (Fisher). 10 μm thick cross-sections were cut and transferred with a paintbrush to glass slides followed by H & E staining. Cross-sections were made at −24° C. using an HM505E cryostat (Microm). Both the treated cells and sections above were exposed to visible light for structural identification (C & E) and fluorescent light for signal location (A, B, D & F) by Olympus BX40 microscope at 200× (A & B) or 1000× (C-F) magnification and photographed. The FITC-PIMAP39-induced fluorescent signal in some macrophages (B) or in the leukocytes within the veins of the liver (F) was observed. The images were taken with a MicroFIRE camera under exposure time (1 second for fluorescent light, 30 second for visible light). […]

Data set [2] has as its system LPS-induced endotoxic shock. The data set can be described thus: Endotoxic shock assay: survival of mice after lethal dose of LPS + D-Gal. The class given is in vivo, mouse. The settings on record: lethal dose LPS + control peptide. The protocol:
(§1) (A) Weight-matched wild-type mice (n=15) were injected intraperitoneal (i.p.) with a lethal dose of LPS (1 mg D-Gal+12.5 ng LPS per gram body weight) followed immediately by tail vein injection of DMSO (black line), 40 µg/g SCpep as control (green line) or […] PIMAP39 (red line). The treated mice were monitored for their behavior and mortality every hour. The survival time of each treated mouse was graphed. […] (B) Blood was collected every 2 hours post injection for a total duration of 6 hours. Mice were warmed under heating lamps to promote blood flow and a small incision was made on the tail. About 10-50 μl of blood was collected per animal at each time point (2, 4 or 6 hours). […] Pooled plasma samples from the mice within each group were measured in triplets by ELISA (Abraxis) to see the effects of PIMAP39 on TNF-α production. ELISA immunoreactivity was quantitated using a microplate reader (Bio-Rad) and the results from the 6 hr mark were graphed (only the data for LPS+DMSO and LPS+PIMAP39 are presented here due to the similarity between LPS+DMSO and LPS+SCepetide). […]
(§2) To investigate how PIMAP39 mediates endotoxic shock, 3 month old, weight matched mice were treated with a lethal dose of LPS (12.5 ng LPS+1 mg D-Gal per gram body weight) followed immediately by a tail vein injection of PIMAP39 or controls. The treated mice were monitored for their behavior and mortality every hour. […]

The next data set concerns TNF-α. The data set can be described thus: Plasma TNF-α by ELISA in the endotoxic shock assay. The class given is in vivo, mouse. The settings on record: 6 hr mark. As to the method: as §1, §2
On the technique in general: An ELISA detects its analyte on a solid surface through an enzyme-linked reagent.

Entries after “also recorded” stand apart in the source; their conditions may differ. No end group written: not given here.

For KYGATTVVRVCEVTYDKTPLEKDGITVV [PIMAP39], the “presence / uptake of peptide in white blood cells in vivo (liver sections, fluorescent signal)” value in data set [1] is “cell permeable; also recorded: taken up”.

Regarding VTGKLTDTEVVTAYVIDEPKYVCRVTGK [SCpep], in data set [2], the “time at which deaths occurred” value fell in the range of 6 to 8 h and the “time at which most mice became sick” value is 3 to 4 h. In the data set with TNF-α, the “plasma TNF-α compared with LPS+DMSO” value is reported as “similarity”.
